Laboratory results: patent US5075304A, “Imidazoquinoxaline compounds and their preparation and use” (Novo Nordisk A/S, priority 1988, dated 1991)

What follows are compounds tested on benzodiazepine receptors (assay: in vivo displacement of 3H-flunitrazepam binding from brain benzodiazepine receptors). Settings: dose reducing specific 3H-flunitrazepam binding in living mouse brain to 50% of control; test substance intraperitoneally 15 min before 3H-FNM i.v.
Set-up: species or system mice
Excerpt: The pharmaceutical properties of the compounds of the invention can be illustrated by determining their capability for displacing radioactive labelled flunitrazepam from benzodiazepine receptors.
The displacement activity of the compounds of the invention may be found by determining the ED50 value. The ED50 value represents the dose (mg/kg) of a test substance which causes the specific binding of flunitrazepam to benzodiazepine receptors in a living brain to be reduced to 50% of the control value.
Such an in vivo test is carried out as follows:
Principle. Twenty minutes after a dose of ^3 H-flunitrazepam (^3 H-FNM) (200 μCi/kg, i.v.) the amount of specific ^3 H-FNM binding to brain benzodiazepine receptors has reached its maximal value.
Test procedure. Suspensions of test substances (2 mg/ml) are prepared in 5% Duphasol-X (TM Duphar, castor oil-ethylene oxide derivative for emulsifying and solubilizing oil and other water-insoluble substances) by sonification for 10 min using a Branson B15 microtip ultrasonifier (setting 7). Groups of three mice (female, NMR, 18-22 grams) are injected with the test substance at 100 mg/kg intraperitoneally. Fifteen minutes after test substance administration the mice are challenged with 4 μCi intravenously of ^3 H-FNM (70-90 Ci/mole) in 200 μl physiological saline. Twenty minutes after ^3 H-FNM administration mice are sacrificed by decapitation, the forebrains rapidly excised (within 30 sec) and homogenized in 12 ml of icecold 25 mM KH2 PO4, pH 7.1, using an Ultra-Turrax homogenizer fitted with an N 10 shaft. […] The amounts of radioactivity on the filters are determined by conventional scintillation counting. […]
Results. The ED50 value is determined from dose response curves. If only one dose of test substance is administered the ED50 value is calculated as follows, provided that the inhibition of specific binding is within the range of 25-75%: [formula] where Co is specific binding in controls and Cx is specific binding in mice treated with test substance.

| Structure (SMILES) | ED50 [mg/kg] |
| --- | --- |
| O=c1c2c(-c3noc(C4CC4)n3)ncn2c2ccccc2n1Cc1ccccc1 [Compound 1, 5-benzyl-3-(5-cyclopropyl-1,2,4-oxadiazol-3-yl)-4,5-dihydro-4-oxo-imidazo[1,5-a]quinoxaline] | 1.2 |
| Cn1c(=O)c2c(-c3noc(C4CC4)n3)ncn2c2cccc(C(F)(F)F)c21 [Compound 2, 3-(5-cyclopropyl-1,2,4-oxadiazol-3-yl)-4,5-dihydro-5-methyl-4-oxo-6-trifluoromethyl-imidazo[1,5-a]quinoxaline] | 0.09 |
| Cn1c(=O)c2c(-c3nc(C4CC4)no3)ncn2c2cccc(C(F)(F)F)c21 [Compound 6, 3-(3-cyclopropyl-1,2,4-oxadiazol-5-yl)-4,5-dihydro-5-methyl-4-oxo-6-trifluoromethylimidazo[1,5-a]quinoxaline] | 0.21 |
